Measurements: patent US9505796B2, “Phosphorylated A2A receptor agonists” (Crozet Medical GMBH, priority 2006, dated 2016)
Several values for one entry are separate records, joined by “and”; a condition that tells them apart may be missing. Equal values may be shown once.

Legend:
[1] = target: T1, A3 receptor human recombinant receptors expressed in CHO cells (Homo sapiens, UniProt P0DMS8); experiment: A3 adenosine receptor radioligand binding vs. [3H]PSB-11; conditions: human recombinant receptors in CHO cells vs. [3H]PSB-11 (antagonist radioligand; agonist affinities underestimated)
T1 construct: expressed in transfected cells; host or cells: CHO cells
T1 sequence (P0DMS8 1-318): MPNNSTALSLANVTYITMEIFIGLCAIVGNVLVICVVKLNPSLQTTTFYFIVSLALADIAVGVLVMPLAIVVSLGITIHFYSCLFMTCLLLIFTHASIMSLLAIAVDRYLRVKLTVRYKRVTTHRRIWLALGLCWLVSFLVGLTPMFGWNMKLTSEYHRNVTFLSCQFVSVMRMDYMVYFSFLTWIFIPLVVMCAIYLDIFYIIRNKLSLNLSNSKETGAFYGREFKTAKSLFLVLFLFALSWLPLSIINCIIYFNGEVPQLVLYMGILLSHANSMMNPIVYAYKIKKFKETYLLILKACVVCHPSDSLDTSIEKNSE
Text: (§1) Tris was obtained from Acros Organics (Leverkusen, Germany); DMSO was from Fluka (Switzerland), HCl was from Merck, HAT supplement from Gibco. [^3H]CCPA ([^3H]2-chloro-N^6-cyclopentyladenosine), [^3H]MSX-2 ([^3H]3-(3-hydroxypropyl)-7-methyl-8-(m-methoxy-styryl)-1-propargylxanthine) (84 Ci/mmol), and [^3H]DSB-11 ([^3H]8-ethyl-4-methyl-2-phenyl-(8R)-4,5,7,8-tetrahydro-1H-imidazo[2,1-i]-purin-5-one (53 Ci/mmol)) were custom-labeled by Amersham. All other chemical reagents, cell culture materials and adenosine receptor ligands were obtained from Sigma.
(§2) Radioligand binding studies were performed as previously described.^7,8

[2] = target: T2, A2A receptor rat brain striatal membranes (Rattus norvegicus, UniProt P30543); experiment: A2A adenosine receptor radioligand binding, rat brain striatal membranes
T2 construct: A2A receptor rat brain; from tissue; host or cells: rat brain striatal membranes
Text: as §1, §2

[3] = target: T3, A1 receptor rat brain cortical membranes (Rattus norvegicus, UniProt P25099); experiment: A1 adenosine receptor radioligand binding vs. [3H]CCPA; conditions: rat brain cortical membranes vs. [3H]CCPA (agonist radioligand)
T3 construct: A1 receptor rat brain; from tissue; host or cells: rat brain cortical membranes
T3 sequence (P25099 1-326): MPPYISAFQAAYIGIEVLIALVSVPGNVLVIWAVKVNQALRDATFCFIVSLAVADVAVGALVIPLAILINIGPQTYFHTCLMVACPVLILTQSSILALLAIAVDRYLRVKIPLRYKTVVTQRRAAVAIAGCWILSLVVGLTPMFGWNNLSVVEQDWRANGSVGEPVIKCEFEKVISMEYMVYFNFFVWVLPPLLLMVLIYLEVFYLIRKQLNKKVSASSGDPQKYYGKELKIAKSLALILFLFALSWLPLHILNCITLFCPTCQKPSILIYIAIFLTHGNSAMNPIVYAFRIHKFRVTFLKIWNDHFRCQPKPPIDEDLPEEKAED
Text: as §1, §2

[4] = target: T4, recombinant soluble glutathione-S-transferase/ecto-5′-nucleotidase fusion protein (rat enzyme) (Rattus norvegicus, UniProt P21588); experiment: Ecto-5′-nucleotidase substrate specificity assay by capillary electrophoresis; assay type: biochemical; conditions: 500 μM nucleoside 5′-monophosphate, 37° C., 20 min; relative to AMP set at 100%; n = 3
T4 construct: Catalytically active recombinant soluble glutathione-S-transferase/ecto-5′-nucleotidase fusion protein; Dr. Herbert Zimmermann, University of Frankfurt (gift); host or cells: insect cells, baculovirus system
T4 sequence (P21588 29-551 limits assumed): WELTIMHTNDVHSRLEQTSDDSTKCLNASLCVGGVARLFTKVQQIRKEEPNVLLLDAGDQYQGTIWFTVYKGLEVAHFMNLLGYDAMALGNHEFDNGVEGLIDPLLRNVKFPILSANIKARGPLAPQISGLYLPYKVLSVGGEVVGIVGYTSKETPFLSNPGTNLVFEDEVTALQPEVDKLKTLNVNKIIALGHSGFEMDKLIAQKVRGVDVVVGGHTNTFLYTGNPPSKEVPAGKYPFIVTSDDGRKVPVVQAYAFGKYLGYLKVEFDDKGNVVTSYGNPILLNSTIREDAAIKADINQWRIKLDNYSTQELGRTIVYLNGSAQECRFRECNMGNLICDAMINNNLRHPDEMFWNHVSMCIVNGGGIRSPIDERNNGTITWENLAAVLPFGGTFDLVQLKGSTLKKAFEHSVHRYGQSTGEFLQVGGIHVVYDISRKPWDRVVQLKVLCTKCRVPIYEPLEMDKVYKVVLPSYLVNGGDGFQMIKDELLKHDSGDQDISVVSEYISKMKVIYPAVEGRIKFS
Method: Catalytically active recombinant soluble glutathione-S-transferase/ecto-5′-nucleotidase fusion protein (rat enzyme) was expressed in insect cells using the baculovirus system and purified by affinity chromatography using agarose-coupled GSH as previously described.^6 The enzyme was obtained from Prof. Dr. Herbert Zimmermann, University of Frankfurt.
Compounds were dissolved in DMSO to obtain 5.0 mM stock solutions. These were further diluted to obtain 1 mM solutions in assay buffer (10 mM Hepes, pH 7.4, 2 mM MgCl2, 1 mM CaCl2). The 1 mM solutions were further diluted in the same buffer as required for the standard calibration curves and the enzyme assays.
CE separations were carried out using a P/ACE MDQ system (Beckman Coulter Instruments, Fullerton, Calif., USA) equipped with a DAD detection system. The electrophoretic separations were carried out using an eCAP fused-silica capillary [30 cm (20 cm effective length), ×75 μm internal diameter (I.D), ×375 μm outside diameter (0.D) obtained from Beckman Coulter]. The following conditions were applied: T=25° C., λmax=232 nm, voltage=15 kV, running buffer 40 mM sodium borate buffer, pH 9.1. The capillary was washed with 0.1 M NaOH for 2 min, deionized water for 1 min, and running buffer for 1 min before each injection. Injections were made by applying 0.1 psi of pressure to the sample solution for 30 s. The amount of adenosine or other nucleosides formed was determined. The CE instrument was fully controlled through a personal computer, which operated with the analysis software 32 KARAT obtained from Beckman Coulter. Electropherograms were evaluated using the same software.
Ecto-5′-nucleotidase substrate specificity assays were performed by using capillary electrophoresis method. Enzyme substrate assays were carried out at 37° C. in a final volume of 100 μl. The reaction mixture contained 500 μM of the nucleoside 5′-monophosphate to be investigated dissolved in reaction buffer (10 mM Hepes, pH 7.4, 2 mM MgCl2, 1 mM CaCl2). The reactions were initiated by adding 10 μl of the appropriately diluted enzyme and was then allowed to proceed at 37° C. for 20 min. The reaction was stopped by heating the mixture at 99° C. for 5 min. Aliquots of 50 μl of the reaction mixture were transferred to mini CE vials and injected into the CE instrument under the conditions described above. The absorbance at 232 nm was monitored continuously and the nucleoside concentrations were determined from the area under each absorbance peak. The experiments were repeated twice with triplicate injections. Control experiments were performed in the absence of substrate and in the absence of enzyme in order to take into account the spontaneous hydrolysis of nucleoside-5′ monophosphates under the experimental conditions, which always amounted to less than 1%.
For the quantification of the dephosphorylation reaction products, we applied the internal normalization method. Thus, the individual peak areas reflected directly the relative content of a corresponding analyte. […] It was verified that in fact there were no observable differences in detector response at the used wavelength and thus no additional correction factors had to be employed for the calculation of the amount of product relative to the amount of substrate. This method is also completely independent of the amount of substrate injected into the capillary which represents 100% at zero reaction time.
Besides AMP, other nucleoside 5′-monophosphates (FIG. 1) were investigated as alternative substrates of ecto-5′-NT. All nucleotides (AMP) were used at a concentration of 500 μM in the presence of 2 mM MgCl2, 1 mM CaCl2, 10 mM Hepes, pH, 7.4, and suitably diluted ecto-5′-NT. Some of the nucleoside 5′-monophosphates were efficiently dephosphorylated to the corresponding nucleosides by the enzyme (Table 1).

[5] = rat brain striatal membranes vs. [3H]MSX-2 (antagonist radioligand; agonist affinities underestimated)

T2 sequence (P30543 whole entry): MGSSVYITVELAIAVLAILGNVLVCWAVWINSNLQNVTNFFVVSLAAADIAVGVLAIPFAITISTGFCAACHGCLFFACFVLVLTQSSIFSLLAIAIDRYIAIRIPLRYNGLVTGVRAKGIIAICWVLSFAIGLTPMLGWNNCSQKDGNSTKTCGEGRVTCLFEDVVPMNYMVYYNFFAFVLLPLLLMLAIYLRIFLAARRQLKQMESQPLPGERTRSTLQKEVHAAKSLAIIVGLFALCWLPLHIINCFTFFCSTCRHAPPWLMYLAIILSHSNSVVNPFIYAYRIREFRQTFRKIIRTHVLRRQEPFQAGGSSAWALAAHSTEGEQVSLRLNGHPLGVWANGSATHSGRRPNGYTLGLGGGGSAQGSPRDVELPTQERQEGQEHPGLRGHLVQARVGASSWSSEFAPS

| Molecule | Ki [1] [µM] | Dephosphorylation (%) by ecto-5′-nucleotidase in comparison with AMP [4] | other results |
| --- | --- | --- | --- |
| 2-(Cyclohexylmethylthio)adenosine-5′-monophosphate [Compound 2] | 1.7 |  |  |
| 2-(Cyclohexylethylthio)adenosine-5′-monophosphate [Compound 3] | 3.6 |  |  |
| 2-(Benzylthio)adenosine-5′-monophosphate [Compound 8] | 0.12 |  | Ki [2, 5]: 8.56 µM; Ki [3]: 0.927 µM |
| CCCSc1nc(N)c2ncn([C@@H]3O[C@H](COP(=O)(O)O)[C@@H](O)[C@H]3O)c2n1 [Compound 4, 2-(Propylthio)adenosine-5′-monophosphate] |  | 46.8 ± 10.5% |  |
| Nc1ncnc2c1ncn2[C@@H]1O[C@H](COP(=O)(O)O)[C@@H](O)[C@H]1O [AMP, adenosine monophosphate, reference compound] |  | 100 ± 1.15% |  |
| 2-(Hexylthio)adenosine-5′-monophosphate [Compound 6] | 2.3 |  | Ki [2, 5]: 1 µM; Ki [3]: 0.256 µM |
| 2-(Phenylethylthio)adenosine-5′-monophosphate [Compound 9] | 1.2 |  |  |
| 2-(Propylthio)adenosine-5′-monophosphate [Compound 4] |  |  | Ki ([2]; rat brain striatal membranes vs. [3H]CGS21680 (agonist radioligand)): 1.35 µM; Ki [3]: 1.27 µM |
| C#CCSc1nc(N)c2ncn([C@@H]3O[C@H](COP(=O)(O)O)[C@@H](O)[C@H]3O)c2n1 [Example No. 10, 2-Propargylthioadenosine-5′-monophosphate] | 10.4 |  | Ki [3]: 0.994 µM |
| Nc1nc(SCC2CCCCC2)nc2c1ncn2[C@@H]1O[C@H](COP(=O)(O)O)[C@@H](O)[C@H]1O [Compound 2, 2-(Cyclohexylmethylthio)adenosine-5′-monophosphate] |  | 70.5 ± 1.17% |  |
| Nc1nc(SCc2ccccc2)nc2c1ncn2[C@@H]1O[C@H](COP(=O)(O)O)[C@@H](O)[C@H]1O [Compound 8, 2-(Benzylthio)adenosine-5′-monophosphate] |  | 0% |  |
| Nc1nc(SCCC2CCCCC2)nc2c1ncn2[C@@H]1O[C@H](COP(=O)(O)O)[C@@H](O)[C@H]1O [Compound 3, 2-(Cyclohexylethylthio)adenosine-5′-monophosphate] |  | 95% and 95.7 ± 1.15% |  |
| CCCCCCSc1nc(N)c2ncn([C@@H]3O[C@H](COP(=O)(O)O)[C@@H](O)[C@H]3O)c2n1 [Compound 6, 2-(Hexylthio)adenosine-5′-monophosphate] |  | 84.2 ± 2.61% |  |
| C=CCSc1nc(N)c2ncn([C@@H]3O[C@H](COP(=O)(O)O)[C@@H](O)[C@H]3O)c2n1 [Compound 5, 2-(Allylthio)adenosine-5′-monophosphate] |  | 0% |  |
| Nc1nc(SC2CCCCC2)nc2c1ncn2[C@@H]1O[C@H](COP(=O)(O)O)[C@@H](O)[C@H]1O [Compound 1, 2-(Cyclohexylthio)adenosine-5′-monophosphate] |  | 27.5 ± 1.45% |  |
| Nc1nc(SCCc2ccccc2)nc2c1ncn2[C@@H]1O[C@H](COP(=O)(O)O)[C@@H](O)[C@H]1O [Compound 9, 2-(Phenylethylthio)adenosine-5′-monophosphate] |  | 0% |  |
